Assay results as given in patent US6814960B1, “Hydroxystilbene compounds used as microbicidal active substances” (Ciba Specialty Chemicals Corporation, priority 1998, dated 2004).

Legend:
Test in all cases: MIC value in microtitre plates (optical density)
Format in all cases: cell-based
[1] = system: Pseudomonas aeruginosa CIP A-22; settings: microtitre plate, CASO bouillon, 48 hours at 37° C., optical density 620 nm, ≦20% growth; some data indicative values
Description: (§1) Determination of the Minimum Inhibiting Concentration (MIC Value) in Microtitre Plates
(§2) Casein/soybean flour peptone bouillon for the preparation of the precultures of the test bacteria and yeast.
(§3) Mycological slant agar for the preculture of moulds.
(§4) Examples of Test Organisms
(§5) The test substances are predissolved in dimethyl sulfoxide (DMSO) and tested in a serial dilution of 1:2.
(§6) Bacteria and yeast are cultured overnight in CASO bouillon, the mould on mycological slant agar and rinsed off with 10 ml of 0.85% sodium chloride solution (+0.1% TritonX-100).
(§7) All test organisms are adjusted to an organism count of 1.5×10^6 CFU/ml with 0.85% sodium chloride solution.
(§8) The test substances are prepipetted into microtitre plates in an amount of 8 μl per well.
(§9) Previously diluted organism substances are diluted 1:100 in CASO bouillon (bacteria and yeast) and Sabouraud 2% glucose bouillon (mould) and added to the test substances in an amount of 192 μl per well.
(§10) The test batches are incubated for 48 hours at 37° C. (bacteria and yeast) or for 5 days at 28° C. (mould).
(§11) After incubation, the growth is determined by reference to the turbidity of the test batches (optical density) at 620 nm in a microplate reader.
(§12) The minimum inhibiting concentration (MIC value) is the concentration of substance at which (compared with the growth control) an appreciable inhibition of the growth (≦20% growth) of the test organisms is ascertained.
(§13) One microtiter plate is used for each test organism and substance concentration. All substances tested in duplicate.

[2] = system: Staphylococcus hominis DSM 20328; settings: microtitre plate, CASO bouillon, 48 hours at 37° C., optical density 620 nm, ≦20% growth; some data indicative values
Description: as §1, §2, §3, §4, §5, §6, §7, §8, §9, §10, §11, §12, §13

[3] = system: Candida albicans ATCC 10231; settings: microtitre plate, CASO bouillon, 48 hours at 37° C., optical density 620 nm, ≦20% growth; some data indicative values
Description: as §1, §2, §3, §4, §5, §6, §7, §8, §9, §10, §11, §12, §13

[4] = system: Escherichia coli NCTC 8196; settings: microtitre plate, CASO bouillon, 48 hours at 37° C., optical density 620 nm, ≦20% growth; some data indicative values
Description: as §1, §2, §3, §4, §5, §6, §7, §8, §9, §10, §11, §12, §13

[5] = system: Aspergillus niger ATCC 6275; settings: microtitre plate, Sabouraud 2% glucose bouillon, 5 days at 28° C., optical density 620 nm, ≦20% growth; some data indicative values
Description: as §1, §2, §3, §4, §5, §6, §7, §8, §9, §10, §11, §12, §13

Row | SMILES | MIC values P. aeruginosa [1] [ppm] | MIC values S. heminis [2] [ppm] | MIC values C. albicans [3] [ppm] | MIC values E. coli [4] [ppm] | MIC values A. niger [5] [ppm]
1 | CCOc1cc(/C=C/c2ccc(Cl)cc2)ccc1O [Comp. of formula 122] | >100 | >100 | >100 | >100 | >100
2 | CCOc1cc(/C=C/c2ccc(C)cc2)ccc1O [Comp. of formula 183] | >100 | >100 | >100 | >100 | >100
3 | COc1cc(/C=C/c2ccccc2)cc(O)c1OC [Comp. of formula 114] | >100 | >100 | >100 | 100 | 100
4 | COc1ccc(/C=C/c2ccccc2C)cc1O [Comp. of formula 170] | >100 | >100 | >100 | >100 | >100
5 | Oc1cccc(/C=C/c2cccc3ccccc23)c1 [Comp. of formula 157] | >100 | 7.5 | 15 | 15 | 60
6 | COc1ccc(/C=C/c2cccc(C)c2O)cc1 [Comp. of formula 140] | >100 | >100 | >100 | >100 | 100
7 | Oc1ccccc1/C=C/c1cccc2ccccc12 [Comp. of formula 162] | >100 | 7.5 | 30 | 30 | 15
8 | COc1ccc(/C=C/c2ccccc2O)cc1 [Comp. of formula 137] | >100 | >100 | >100 | 100 | >100
9 | Cc1cccc(/C=C/c2ccc(-c3ccccc3)cc2)c1O [Comp. of formula 153] | >100 | >100 | >100 | >100 | >100
10 | COc1ccc(/C=C/c2ccc(C)cc2)cc1O [Comp. of formula 182] | >100 | >100 | >100 | >100 | >100
11 | COc1cc(/C=C/c2ccc(C)cc2)ccc1O [Comp. of formula 184] | >100 | >100 | >100 | >100 | 100
12 | COc1cc(/C=C/c2ccc(-c3ccccc3)cc2)cc(O)c1OC [Comp. of formula 151] | >100 | >100 | >100 | >100 | >100
13 | COc1cc(/C=C/c2ccc(Cl)cc2)ccc1O [Comp. of formula 123] | >100 | >100 | >100 | >100 | 100
14 | Cc1ccc(/C=C/c2cccc(O)c2)cc1 [Comp. of formula 181] | 100 | 15 | 15 | 15 | 30
15 | COc1cc(/C=C/c2ccccc2)ccc1O [Comp. of formula 111] | >100 | >100 | >100 | >100 | 100
16 | Oc1ccc(/C=C/c2ccc(-c3ccccc3)cc2)cc1 [Comp. of formula 143] | >100 | >100 | >100 | >100 | >100
17 | COc1cc(/C=C/c2cccc3ccccc23)ccc1O [Comp. of formula 160] | >100 | >100 | >100 | >100 | 100

Row | SMILES | MIC values P. aeruginosa [1] [ppm] | MIC values S. heminis [2] [ppm] | MIC values C. albicans [3] [ppm] | MIC values E. coli [4] [ppm] | MIC values A. niger [5] [ppm]
18 | CCOc1cc(/C=C/c2ccc(OC)cc2)ccc1O [Comp. of formula 134] | >100 | >100 | >100 | >100 | >100
19 | Cc1ccccc1/C=C/c1cccc(O)c1 [Comp. of formula 169] | 100 | 30 | 30 | 60 | 30
20 | Cc1ccc(/C=C/c2ccc(O)cc2)cc1 [Comp. of formula 180] | >100 | 100 | >100 | >100 | >100
21 | CCOc1cc(/C=C/c2ccccc2)ccc1O [Comp. of formula 110] | >100 | >100 | >100 | >100 | >100
22 | Cc1cccc(/C=C/c2cccc3ccccc23)c1O [Comp. of formula 165] | >100 | 100 | >100 | >100 | 100
23 | COc1cc(/C=C/c2ccc(C)cc2)cc(O)c1OC [Comp. of formula 187] | >100 | >100 | >100 | >100 | >100
24 | CCOc1cc(/C=C/c2cccc3ccccc23)ccc1O [Comp. of formula 159] | >100 | >100 | >100 | >100 | 100
25 | Oc1cccc(/C=C/c2ccc(-c3ccccc3)cc2)c1 [Comp. of formula 145] | >100 | >100 | >100 | >100 | >100
26 | COc1ccc(/C=C/c2cccc3ccccc23)cc1O [Comp. of formula 158] | >100 | >100 | >100 | >100 | >100
27 | COc1cc(/C=C/c2cccc3ccccc23)cc(O)c1OC [Comp. of formula 163] | >100 | >100 | >100 | >100 | 100
28 | CCOc1cc(/C=C/c2ccccc2C)ccc1O [Comp. of formula 171] | >100 | >100 | >100 | >100 | >100
29 | Cc1ccccc1/C=C/c1cccc(C)c1O [Comp. of formula 177] | >100 | 30 | 60 | 60 | 60
30 | COc1cc(/C=C/c2ccccc2C)ccc1O [Comp. of formula 172] | >100 | >100 | 10 | >100 | >100
31 | COc1ccc(/C=C/c2ccccc2)cc1O [Comp. of formula 109] | >100 | >100 | >100 | >100 | 100
32 | COc1ccc(/C=C/c2ccc(Cl)cc2)cc1O [Comp. of formula 121] | >100 | >100 | >100 | >100 | >100
33 | COc1ccc(/C=C/c2ccc(O)cc2)cc1 [Comp. of formula 131] | >100 | >100 | >100 | >100 | >100
